# Laboratory results from patent US20200330467A1, “METHOD AND PHARMACEUTICAL COMPOSITIONS FOR THE TREATMENT OF MULTIPLE MYELOMA” (priority 2016, published 2020).
# Tests used:
# XG7 HMCL = test: Apoptosis induction, Annexin V APC staining by flow cytometry, XG7; format: cell-based, human; conditions: XG7, UNC0379 5 mM (so in the source)
# Procedure: (§1) Apoptosis induction was analyzed with Annexin V APC staining by flow cytometry. The shown data is one representative experiment and mean values±SD of 3 separate experiments. Statistical analysis was done with a paired t-test.
# non-myeloma cells = format: cell-based, human; conditions: 1, 2.5 and 5 μM, day 4, patient mononuclear cell cultures, n=8
# Procedure: […]. At day 4 of culture, the viability and total cell counts were assessed and the percentage of CD138 viable plasma cells was determined by flow cytometry. Results are median values of the numbers of myeloma cells in the culture wells. The values were compared with a Wilcoxon test for pairs.
# […]. MMCs cytotoxicity was evaluated using anti-CD138-PE mAb (Immunotech, Marseille, France) as described^18,35. Results were analyzed using GraphPad Prism (http://www.graphpad.com/scientific-software/prism/).
# MM cells = test: DNA repair foci (53BP1) immunofluorescence, combination with melphalan; conditions: sub-lethal dose of UNC0379 combined with melphalan, P<0.001
# Text: At least 300 cells were counted for each treatment group.
# After deposition on slides using a Cytospin centrifuge, cells were fixed with 4% PFA, permeabilized with 0.5% Triton in PBS and saturated with 5% bovine milk in PBS. […] Slides were washed and mounted with Vectashield and 1% DAPI. Images and fluorescence were captured with a ZEISS Axio Imager Z2 microscope (X63 objective) (company, town state), analyzed with Metafer (version3.6, company, town state) and ImageJ softwares. The number of 53BP1 and γH2AX foci was counted in at least 300 nuclei.
# XG1 HMCL = test: Apoptosis induction, Annexin V APC staining by flow cytometry, XG1; format: cell-based, human; conditions: XG1, UNC0379 5 mM (so in the source)
# Procedure: as §1
# U2OS cells = test: Immunoblot analysis of DNA damage and checkpoint markers in U2OS cells treated with UNC0379; format: cell-based, human
# Procedure: For immunoblot analysis, cells washed with phosphate-buffered saline (PBS) were lysed in Laemmli buffer. After measuring protein quantity by Bradford, equal amounts of protein were resolved by SDS-PAGE, transferred to a nitrocellulose membrane and probed with one of the following antibodies: anti-SETD8 (1:1000, Cell Signaling Technology), anti-H4K20me1 (1:1000 cell signaling) anti-phospho-H2A.X-Ser139 (1:1000, millipore). Membranes were then incubated with the appropriate horseradish peroxidase (HRP)-conjugated secondary antibodies. The immunoreactive bands were detected by chemiluminescence.
smiles,measurement,setting,value
COc1cc2nc(N3CCCC3)nc(NCCCCCN3CCCC3)c2cc1OC [UNC0379],annexin-V positive cells,XG7 HMCL,63%
same,toxicity on the non-myeloma cells,non-myeloma cells,without significant toxicity
same,accumulation of DNA double strand breaks (53BP1 foci),MM cells,significantly synergizes with melphalan
same,annexin-V positive cells,XG1 HMCL,87%
same,P53 level,U2OS cells,stabilization of P53
same,phosphorylation of CHK1 (DNA damage checkpoint activation),U2OS cells,phosphorylation of CHK1
same,γH2A.X (marker of DNA damage),U2OS cells,increase in γH2A.X
